Results taken from BindingDB's records for doi:10.1016/j.bmcl.2006.06.087 (Fundp, 2006).

What follows are compounds tested against T1, Fatty-acid amide hydrolase 1 [30-579] (Rattus norvegicus, UniProt P97612) (assay: FAAH Inhibition Assay). Conditions: pH 9; 37 °C.
T1 construct: 30-579
T1 sequence (P97612 whole entry): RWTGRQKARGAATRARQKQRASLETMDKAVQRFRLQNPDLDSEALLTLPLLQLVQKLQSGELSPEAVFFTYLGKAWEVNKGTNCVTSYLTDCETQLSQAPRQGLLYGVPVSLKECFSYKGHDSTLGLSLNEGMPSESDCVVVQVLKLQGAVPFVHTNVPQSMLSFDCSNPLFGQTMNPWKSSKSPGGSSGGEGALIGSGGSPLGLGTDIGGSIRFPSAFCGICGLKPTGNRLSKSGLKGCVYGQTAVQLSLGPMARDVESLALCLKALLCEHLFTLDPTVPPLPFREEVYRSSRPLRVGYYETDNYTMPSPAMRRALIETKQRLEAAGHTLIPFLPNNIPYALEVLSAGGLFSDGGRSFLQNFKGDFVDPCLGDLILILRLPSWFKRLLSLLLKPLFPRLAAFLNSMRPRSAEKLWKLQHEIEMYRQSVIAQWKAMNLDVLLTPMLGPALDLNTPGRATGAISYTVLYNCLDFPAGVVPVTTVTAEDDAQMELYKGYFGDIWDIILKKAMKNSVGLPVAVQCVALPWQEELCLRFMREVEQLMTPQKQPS
Description: The effect of the test compounds on the enzymatic hydrolysis of [3H]anandamide was evaluated by using rat brain homogenate preparations. [3H]Ethanolamine produced from [3H]AEA hydrolysis was used to calculate FAAH activity and was measured by scintillation counting of the aqueous phase after extraction of the incubation mixture. Data are expressed as the concentration exerting a half maximal inhibition (IC50).

| Compound | IC50 |
| --- | --- |
| C#CCCCCCCCCCNC(=O)Oc1cccc(-c2cccc(C(N)=O)c2)c1 [3-(3-carbamoylphenyl)phenyl N-(undec-10-yn-1-yl)carbamate] | 0.01 µM |
| O=C(CCCCCCc1ccccc1)c1nc2ncccc2o1 [7-phenyl-1-{pyrido[2,3-d][1,3]oxazol-2-yl}heptan-1-one] | 0.000316 µM |
| CCCCCCN1C(=O)C(c2ccccc2)(c2ccccc2)NC1=S [3-hexyl-5,5-diphenyl-2-sulfanylideneimidazolidin-4-one] | 4.47 µM |
| O=C1N(c2ccccc2)C(=S)NC1(c1ccccc1)c1ccccc1 [3,5,5-triphenyl-2-sulfanylideneimidazolidin-4-one] | 29.5 µM |
| CCCCCCN1C(=O)NC(c2ccccc2)(c2ccccc2)C1=O [3-hexyl-5,5-diphenylimidazolidine-2,4-dione] | 9.55 µM |
| CCCCCCCCN1C(=O)C(c2ccc(Br)cc2)(c2ccc(Br)cc2)NC1=S [5,5-bis(4-bromophenyl)-3-octyl-2-sulfanylideneimidazolidin-4-one] | 589 µM |
| CCCCCCCCN1C(=O)C(c2ccccc2)(c2ccccc2)NC1=S [3-octyl-5,5-diphenyl-2-sulfanylideneimidazolidin-4-one] | 3.02 µM |
